Measurements reported in US9493466B2, “Treatment of cancer with TOR kinase inhibitors” (Signal Pharmaceuticals, LLC, priority 2011, dated 2016).

Tested on: U87MG tumors
Experiment: U87MG human glioblastoma xenograft model (Compound 1)
Format: in vivo, SCID mice
Settings: positive control, 4 mg/kg Q3D IP, 18 days
Method: U87MG Human Glioblastoma Xenograft Model (Compound 1). Efficacy Studies: Groups of female SCID mice bearing U87MG tumors (n=8-10/group) were dosed orally with vehicle or Compound 1 throughout the study, starting when tumor volumes reached approximately 200 mm^3. The twice daily (BID) dose groups were dosed with a 10-hour separation between morning and evening doses. In the positive control group, rapamycin was administered Q3D via intraperitoneal (IP) route. At the end of each study, plasma and/or tumor samples were collected.
Cell Line and Culture. U87MG cell line was obtained from American Tissue Culture Collection (ATCC) (Gaithersberg, Md.) and grown in growth medium containing MEM, 2 mM L-glutamine, 0.1 mM non-essential amino acids and 1 mM sodium pyruvate and 10% fetal bovine serum (FBS). The cells were detached from tissue culture flasks using trypsin-EDTA. After centrifugation, the cell pellets were suspended in phosphate buffered saline (PBS) and counted using a hemocytometer. The final volume was adjusted to 5×10^6 cells/0.1 mL of PBS.
Tumor Cell Inoculation. Mice were anesthetized with inhaled isoflurane and then inoculated with U87MG tumor cells subcutaneously on the right hind leg with 0.1 mL of a single cell suspension in PBS using a sterile 1 mL syringe fitted with a 26 gauge needle. Following inoculation, the mice were returned to microisolator cages
Randomization of Animals. Following inoculation, tumors were allowed to grow to about 200 mm^3 prior to randomization. The typical number of days required for tumors to reach 200 mm^3 was 14-15 days. The tumor of each animal was measured and animals with tumors ranging between 175-250 mm^3 were included in the study. Animals from the pool were then distributed randomly into various cages and the cages were randomly assigned to vehicle, positive control, or test article groups. All of the mice were tagged with metal ear tags on the right ear.
Test Article Preparation and Administration. Suspensions of Compound 1 were prepared in aqueous 0.5% CMC and 0.25% Tween-80. The formulations were homogenized using a Teflon™ pestle and mortar (Potter-Elvehjem tissue grinder). Between the doses, the formulated compound was stored under constant stirring using a magnetic stirrer at 4° C. in the dark. The test article and vehicle were administered by oral gavage. The positive control, rapamycin, was prepared as solution in 2% ethanol, 45% polyethyleneglycol 400, and 53% saline and administered by IP injection. Sterile syringes and gavage needles were used for compound administration. All of the procedures including injections were done in biosafety cabinets disinfected with 70% ethanol prior to use.
Tumor Measurements. Tumor volumes were determined prior to the initiation of treatment and were considered as the starting volumes. Thereafter, tumors were measured twice a week for the duration of the study. The long and short axes of each tumor were measured using a digital caliper in millimeters. Tumor volumes were calculated using the formula: width^2×length/2. The tumor volumes were expressed in cubic millimeters (mm^3).
Tumor Growth Delay (TGD) Calculations. Tumor growth delay is the difference in days for treated versus control tumors to reach a volume of 1000 mm^3. The TGD was calculated from the data plotted in a graph format.
Body Weight Measurements. Initial body weights were recorded prior to the initiation of treatment using a digital scale. The percent body weight change during the course of the study was calculated using initial body weight measurements. Body weights of each animal were measured twice a week at the same time as the tumor measurements. Body weights were measured more frequently if significant decreases were noted during the course of the study.

Which “change in body weight” value does the source give for `CO[C@H]1C[C@@H]2CC[C@@H](C)[C@@](O)(O2)C(=O)C(=O)N2CCCC[C@H]2C(=O)O[C@H]([C@H](C)C[C@@H]2CC[C@@H](O)[C@H](OC)C2)CC(=O)[C@H](C)/C=C(\C)[C@@H](O)[C@@H](OC)C(=O)[C@H](C)C[C@H](C)/C=C/C=C/C=C/1C` [rapamycin, reference compound] here?
Its value is “No significant change”.
